# In US8318446B2, “DNA-damage-induced proteolysis” (California Institute of Technology, priority 2008, dated 2012):
# Read-outs that look alike come from different tables or passages of the source.
# Columns and labels:
# [1] = test system: endogenous Htt; assay: Etoposide-induced Htt proteolysis in MESC2.10 neurons, Western blotting with anti-Htt mAb 2166; assay type: cell-based, human; details: for effect on etoposide-induced Htt proteolysis: pre-incubation 1 hr prior to 10 μM etoposide, sodium salicylate 5 mg/ml, caspase inhibitors 20 μM
# Excerpt: Extracts were examined for Htt by Western blotting. […] Fold changes for full-length Htt levels were obtained by measuring the band intensity in each lane, normalized to tubulin and compared to non-treated control.
# EGFP-lentivirus was used a control (C). […] Second and third panels show staining for Bcl-xL and pro-caspase-3, respectively. IKKγ levels were used as a loading control.
# (§1) Neurons were harvested and separated into cytoplasmic and nuclear fractions using the NE-PER kit (PIERCE) according to instructions. For most experiments, ˜120 μg of lysate were used for SDS-PAGE and Western blotting with the indicated antibodies. Reactive bands in Western blots were detected by enhanced chemiluminescence (ECL) using a gel documentation system.
# [2] = test system: Htt; assay: γ-irradiation-induced Htt cleavage in MESC2.10 neurons; assay type: cell-based, human; details: 5 Gy, 6 hours; sodium salicylate 5 mg/ml 1 hour prior to irradiation
# Experimental: Cells were irradiated with 5 Gy and further incubated for the indicated time. Sodium salicylate (NaSal, lane 5) was added at a concentration of 5 mg/ml 1 hour prior to irradiation and incubated for 6 hours. […] Lanes 7 and 8 represent MESC2.10 neurons transduced with an IKKβ shRNA lentivirus (FIG. 4A) and irradiated with 5 Gy and incubated for 6 hours. […] Tubulin was used as a loading control
# To confirm that Htt cleavage is induced by DNA damage and not other, secondary effects of etopoisde, we examined whether DNA damage induced by γ-irradiation of neurons could have a similar effect on Htt cleavage. […] The difference may be due to rapid induction of double stranded DNA breaks by irradiation.
# [3] = test system: caspase-3; assay type: cell-based, human; details: etoposide 6 hrs; DEVD-p-nitroanaline substrate; sodium salicylate 5 mg/ml 1 hour prior
# [4] = test system: caspase-6; assay type: cell-based, human; details: etoposide 6 hrs; VEID-p-nitroanaline substrate; sodium salicylate 5 mg/ml 1 hour prior
# [5] = test system: Bcl-xL; assay: Bcl-xL level in extracts of MESC2.10 neurons, Western blotting; assay type: cell-based, human
# Excerpt: FIG. 6A is a western blot showing the expression of Bcl-XL. Extracts of control and etoposide-treated MESC2.10 neurons were examined for Bcl-xL by Western blotting. […] Fold changes were normalized to the intensity of loading control, and compared to that of untreated control neurons (lane 5).
# [6] = test system: Bcl-xL; details: Hdh^Q111/Q111 neurons; NaSal 5 mg/ml 1 hour prior to 10 μM etoposide
# Experimental: as §1
# [7] = biological target: recombinant IKKβ (Homo sapiens, UniProt O14920); details: full-length Bcl-xL, 32P-γ-ATP, 30 min at 30° C.
# Experimental: Active recombinant IKKα or IKKβ were tested for the ability to phosphorylate Bcl-xL. The kinase assay was performed using recombinant Bcl-xL as a substrate. Products were visualized by autoradiography. IκBα was used as a positive control substrate for IKKα.
# (§2) To determine IKKα activity, lyastes were first depleted of IKKβ complexes using 4 μg of anti-IKKγ and anti-IKKβ antibodies coupled to protein G. The depleted lysates were used to isolate IKKα complexes with 2 μg of anti-IKKα antibody. GST-IκBα was used as a substrate to measure kinase activity. To examine whether IKKs phosphorylate Bcl-xL, 0.5 μg of either IKKα or IKKβ were incubated with 1 μg of full-length Bcl-xL in the presence of 32P-γ-ATP for 30 min at 30° C. GST protein was used as a negative control. All kinase products were examined by SDS-PAGE and autoradiography.
# The possibility that activated IKKβ phosphorylates Bcl-xL was tested. To avoid contamination with other neuronal kinases that may co-immunoprecipitate with IKKβ, recombinant IKKs were used for in vitro kinase assays with Bcl-xL as the substrate.
# [8] = test system: IKKα; assay: Activation of IKKα in MESC2.10 neurons expressing Flag-tagged IKKα, immune kinase assay; assay type: cell-based, human; details: neurons starved for growth factors 8 hours; IGF-1 20 ng/ml, netrin 100 ng/ml
# Experimental: IGF-1 was added at 20 ng/ml for the indicated time.
# Netrin was added at 100 ng/ml for the indicated time.
# The ability of a molecule to increase IKKα activation can be measured using assays that are well known in the art. For example and without limitation, IKKα activators can be identified using immune kinase assays and gene reporter assay. In an example of immune kinase assays, MESC2.10 neurons engineered to express a Flag-tagged IKKα are starved for growth factors for 8 hours. Candidate IKKα activators are added, respectively, to the starved MESC2.10 neurons for desired period of time. Neurons are harvested and cytoplasmic extracts are used to immunoprecipitate IKKα using agarose beads coupled to anti-Flag antibody. Complexes are assayed for the ability to phosphorylate a recombinant substrate GST-IκBα in the presence of radioactive […]. Products are examined by SDS-PAGE followed by autoradiography.
# MESC2.10 neurons engineered to express a Flag-tagged IKKα were starved for growth factors for 8 hours. 20 ng/ml insulin-like growth factor-1 (IGF-1) and 100 ng/ml netrin were added, respectively, to the starved MESC2.10 neurons for the indicated time. […] Fold changes of IKK activity were quantified by measuring the band intensity using Image J, and compared to non-treated neurons.
# [9] = test system: IKKα; assay: IKKα kinase assay on IKKα complexes devoid of IKKβ from MESC2.10 neurons; assay type: cell-based, human; details: longer treatment with 10 μM etoposide
# Experimental: as §2
# To determine whether DNA damage influences IKKα activity, IKKα complexes devoid of IKKβ was obtained. Neuronal extracts were depleted by prior incubation with anti-IKKγ and anti-IKKβ antibodies, and IKKα complexes were subsequently immunoprecipitated.
# [10] = biological target: T1, caspase-3 (Homo sapiens, UniProt P42574); assay type: cell-based; details: MESC2.10 neurons, 6 hrs of etoposide treatment, western blot
# T1 construct: Fifty μg of each lysate was incubated with either caspase-3 substrate (DEVD conjugated to p-nitroanaline); endogenous in cells; host or cells: differentiated MESC2.10 human neurons (lysates)
# T1 sequence (P42574 1-277): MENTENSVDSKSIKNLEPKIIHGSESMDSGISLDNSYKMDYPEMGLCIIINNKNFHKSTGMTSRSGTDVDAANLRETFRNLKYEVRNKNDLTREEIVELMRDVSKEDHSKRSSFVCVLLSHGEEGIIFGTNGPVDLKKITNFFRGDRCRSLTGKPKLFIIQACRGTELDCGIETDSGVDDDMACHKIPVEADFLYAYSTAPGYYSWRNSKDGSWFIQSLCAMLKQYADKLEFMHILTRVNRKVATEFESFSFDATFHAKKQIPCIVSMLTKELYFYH
# [11] = biological target: T2, caspase-6 (Homo sapiens, UniProt P55212); assay type: cell-based; details: MESC2.10 neurons, 6 hrs of etoposide treatment, western blot
# T2 construct: endogenous in cells; host or cells: differentiated MESC2.10 human neurons (lysates)
# T2 sequence (P55212 1-293): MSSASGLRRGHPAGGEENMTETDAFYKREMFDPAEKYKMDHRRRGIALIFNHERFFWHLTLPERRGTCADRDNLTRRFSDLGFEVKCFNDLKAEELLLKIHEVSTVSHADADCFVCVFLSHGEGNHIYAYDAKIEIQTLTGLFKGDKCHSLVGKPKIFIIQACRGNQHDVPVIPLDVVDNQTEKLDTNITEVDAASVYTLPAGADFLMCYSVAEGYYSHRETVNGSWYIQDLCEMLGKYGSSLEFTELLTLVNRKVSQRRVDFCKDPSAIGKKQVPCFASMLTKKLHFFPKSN
# [12] = test system: full-length, mutant Htt protein; assay: Etoposide-induced proteolysis of mutant Htt in striatal Hdh^Q111/Q111 neurons; assay type: cell-based, mouse; details: 10 μM etoposide for 6 hours
# Excerpt: Processing of samples was as described in FIG. 3A. […] IKKγ was used as loading control.
# [13] = test system: p65 NF-κB; assay: p65 NF-κB binding to consensus DNA oligonucleotides, nuclear extracts of MESC2.10 neurons; assay type: cell-based, human; details: etoposide
# Experimental: Lanes 1-4 show p65 binding from nuclear extracts of control and lanes 5-8 show p65 binding from neurons transduced with a lentivirus expressing IKKα (FIG. 3C).
# Wells with mutated NF-κB DNA oligonucleotides were used to ensure specificity of the binding (column 4).
# Nuclear extracts for control or etoposide-treated MESC2.10 neurons were obtained using the cell fractionation kit from pierce according to the instructions provided. Fifty μg of each nuclear extract was incubated for an hour at room temperature on 96 well plates coated with consensus NF-κB oligonucleotides (p65 or p52). Mutated NF-κB oligonucleotides were used to confirm binding specificity. For competition assays, nuclear extracts were pre-incubated with NF-κB oligonucleotides for 1 hour on ice and then added to the coated wells. After washing, each well was incubated with anti-p65 or anti-p52 antibodies for 30 min at 37° C. Wells were washed, followed by incubation with a secondary antibody conjugated to HRP. TMB (3,3′,5,5′-tetramethylbenzidine) was added for 10 min. Binding was measured in a microplate reader at 655 nm.
# [14] = test system: p53; assay: Nuclear p53 in MESC2.10 neurons, western blotting; assay type: cell-based, human; details: etoposide
# Excerpt: Nuclear extracts from MESC2.10 neurons were examined for the presence p53 by western blotting. Lanes 1-4 are nuclear extracts from MESC2.10 neurons with EGFP and lanes 5-8 are from neurons that were transduced with IKKα lentiviruses (FIG. 3C). Staining with anti-lamin B1 was used to ensure equal loading (bottom panel).
# [15] = test system: MESC2.10 neurons; assay: BrdU incorporation (cell cycle activation) in MESC2.10 neurons; assay type: cell-based, human; details: Day 6 differentiated neurons, 10 μM etoposide 4 hours, BrdU 1 mM
# Experimental: BrdU incorporation was detected described in M&M. Image was captured with a confocal microscope.
# BrdU (1 mM) was added and incubated for additional 2 hours. Cells were fixed in 5% paraformaldehyde followed by permeabilization in 70% methanol in PBS at −20° C. overnight. To denature chromatin, coverslips were immersed in 2 N HCl for 30 minutes at 37° C. and neutralized in 0.1 M borate buffer (pH 8.5) by washing 2 times for 5 minutes. To detect BrdU incorporation, coverslips were incubated with Rat-anti-BrdU (1:200). Anti-Tuj-1 (1:1000) was used to stain neurons. Goat anti rat conjugated to rhodamine and goat anti-mouse conjugated to FITC (1:500) were used as secondary. Pictures were captured with a confocal microscope.
# [16] = test system: IKKα; assay: IKKα protein level in MESC2.10 neurons, western blot; assay type: cell-based, human
# Excerpt: Lysates were first treated with a combination of anti-IKKβ and IKKγ antibodies coupled to agarose beads to deplete IKKγ/IKKβ/IKKα complex. […] Fold changes of IKK activity were quantified by measuring the band intensity using Image J, and compared to non-treated neurons.
# FIG. 3C is a western blot showing IKKα levels in the control and IKKα-expressing neurons. MESC2.10 neuroblasts were transduced with an IKKα recombinant lentivirus and differentiated as described below. EGFP lentivirus was used as a control.
# IKKα was cloned into the lentiviral FUGW vector under the control of a ubiquitin promoter. An EGFP-lentivirus was used as a control. The Bcl-xL cDNA was cloned from MESC2.10 neurons by RT-PCR using standard procedures and its identity confirmed by sequencing. The cDNA was subsequently inserted into FUGW lentiviral vector. The shRNAs for IKKβ were cloned in a lentiviral backbone. Lentiviruses were produced by transfection of 293 cells using calcium phosphate precipitation. Supernatants of virus-producing cells were harvested 48 hr post-transfection and concentrated on Amicon Ultra columns. An EGFP virus was used as a control to monitor viral titer. A multiplicity of infection of 4:1 was used to infect MESC2.10 neuroblasts. Expression of IKKα, Bcl-xL and reduction of IKKβ were determined by Western blotting.
# [17] = biological target: T3, IKKβ (Homo sapiens, UniProt O14920); details: cited from earlier work
# T3 sequence (O14920 1-756): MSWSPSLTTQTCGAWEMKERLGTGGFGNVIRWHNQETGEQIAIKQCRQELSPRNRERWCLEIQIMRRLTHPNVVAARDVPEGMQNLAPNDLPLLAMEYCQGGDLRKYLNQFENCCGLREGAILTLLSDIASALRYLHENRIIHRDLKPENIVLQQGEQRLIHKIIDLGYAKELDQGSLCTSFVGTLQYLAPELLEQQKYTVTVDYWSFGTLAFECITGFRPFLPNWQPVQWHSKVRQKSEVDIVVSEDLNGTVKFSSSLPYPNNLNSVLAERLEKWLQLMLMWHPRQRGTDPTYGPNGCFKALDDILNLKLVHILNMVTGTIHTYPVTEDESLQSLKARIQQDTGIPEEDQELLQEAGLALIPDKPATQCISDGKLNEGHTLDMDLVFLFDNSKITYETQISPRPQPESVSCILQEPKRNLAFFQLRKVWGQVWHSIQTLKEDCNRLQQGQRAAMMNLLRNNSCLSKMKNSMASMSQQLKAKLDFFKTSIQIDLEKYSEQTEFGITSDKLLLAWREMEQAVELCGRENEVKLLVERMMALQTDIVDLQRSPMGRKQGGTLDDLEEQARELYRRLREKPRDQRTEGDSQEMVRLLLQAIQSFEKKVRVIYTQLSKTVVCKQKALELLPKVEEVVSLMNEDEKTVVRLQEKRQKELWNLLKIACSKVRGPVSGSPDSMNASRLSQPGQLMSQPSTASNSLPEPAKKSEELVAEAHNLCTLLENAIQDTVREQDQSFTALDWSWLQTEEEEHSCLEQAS
compound,measurement,setting,value
Ac-DEVD-CHO,effect on etoposide-induced Htt proteolysis,[1],reduced Htt proteolysis
O=C([O-])c1ccccc1O.[Na+] [sodium salicylate],effect on etoposide-induced Htt proteolysis,[1],blocks etoposide-induced Htt proteolysis
same,effect on Htt cleavage induced by γ-irradiation,[2],blocked Htt cleavage
same,caspase-3 activity in neuronal extracts,[3],lowered the etoposide-induced activation of caspases
same,caspase-6 activity in neuronal extracts,[4],lowered the etoposide-induced activation of caspases
same,effect on etoposide-induced reduction of Bcl-xL,"[5]; MESC2.10 neurons pre-treated or transduced, then etoposide",did not affect Bcl-xL
same,effect on etoposide-induced reduction of Bcl-xL,[6],prevented
same,phosphorylation of Bcl-xL by IKKβ,[7],prevented the reaction
"IGF-1: insulin-like growth factor-1, IKKα activator",activation of IKKα,[8],activates IKKα
Ac-VEID-aldehyde,effect on etoposide-induced Htt proteolysis,[1],no significant effect
COc1cc([C@@H]2c3cc4c(cc3[C@@H](O[C@@H]3O[C@@H]5CO[C@@H](C)O[C@H]5[C@H](O)[C@H]3O)[C@H]3COC(=O)[C@H]23)OCO4)cc(OC)c1O [etoposide],IKKα kinase activity after etoposide treatment,[9],reduces IKKα activity
same,"increase of the level of endogenous, full-length Htt","[1]; MESC2.10 neurons, 10 μM etoposide, early time points",~4 fold
same,time required for maximal Htt proteolysis,"[1]; MESC2.10 neurons, etoposide",~6 h
same,proteolysis of endogenous Htt caused by the agent,"[1]; MESC2.10 neurons, longer exposure to 10 μM etoposide",induces proteolysis of endogenous Htt
same,procaspase-3 level / activation,[10],reduced
same,caspase-3 activity in neuronal extracts,[3],elevated
same,procaspase-6 level / activation,[11],reduced
same,caspase-6 activity in neuronal extracts,[4],elevated
same,level of intact Bcl-xL after etoposide,"[5]; MESC2.10 neurons, etoposide 6 hours",reduced
same,cleavage of full-length mutant Htt caused by the agent,[12],"promoted cleavage of full-length, mutant Htt protein"
same,p65 NF-κB DNA binding activity,[13],activated p65 NF-κB DNA binding
same,nuclear p53,[14],accumulates in the nucleus
same,cell cycle activation measured by BrdU incorporation,[15],promotes cell cycle activation
same,level of IKKα protein after etoposide treatment,[16],decrease
arsenite,IKKβ activation,[17],potently inhibited IKKβ activation
